Assay results: BindingDB's records for doi:10.1111/j.1747-0285.2007.00488.x (Shanghai Jiao Tong University, 2007)

Molecular target: Vascular endothelial growth factor receptor 2 (Homo sapiens, UniProt P35968)
Assay: Kinase Inhibition Assay

Vascular endothelial growth factor receptor 2, sequence (P35968 whole entry): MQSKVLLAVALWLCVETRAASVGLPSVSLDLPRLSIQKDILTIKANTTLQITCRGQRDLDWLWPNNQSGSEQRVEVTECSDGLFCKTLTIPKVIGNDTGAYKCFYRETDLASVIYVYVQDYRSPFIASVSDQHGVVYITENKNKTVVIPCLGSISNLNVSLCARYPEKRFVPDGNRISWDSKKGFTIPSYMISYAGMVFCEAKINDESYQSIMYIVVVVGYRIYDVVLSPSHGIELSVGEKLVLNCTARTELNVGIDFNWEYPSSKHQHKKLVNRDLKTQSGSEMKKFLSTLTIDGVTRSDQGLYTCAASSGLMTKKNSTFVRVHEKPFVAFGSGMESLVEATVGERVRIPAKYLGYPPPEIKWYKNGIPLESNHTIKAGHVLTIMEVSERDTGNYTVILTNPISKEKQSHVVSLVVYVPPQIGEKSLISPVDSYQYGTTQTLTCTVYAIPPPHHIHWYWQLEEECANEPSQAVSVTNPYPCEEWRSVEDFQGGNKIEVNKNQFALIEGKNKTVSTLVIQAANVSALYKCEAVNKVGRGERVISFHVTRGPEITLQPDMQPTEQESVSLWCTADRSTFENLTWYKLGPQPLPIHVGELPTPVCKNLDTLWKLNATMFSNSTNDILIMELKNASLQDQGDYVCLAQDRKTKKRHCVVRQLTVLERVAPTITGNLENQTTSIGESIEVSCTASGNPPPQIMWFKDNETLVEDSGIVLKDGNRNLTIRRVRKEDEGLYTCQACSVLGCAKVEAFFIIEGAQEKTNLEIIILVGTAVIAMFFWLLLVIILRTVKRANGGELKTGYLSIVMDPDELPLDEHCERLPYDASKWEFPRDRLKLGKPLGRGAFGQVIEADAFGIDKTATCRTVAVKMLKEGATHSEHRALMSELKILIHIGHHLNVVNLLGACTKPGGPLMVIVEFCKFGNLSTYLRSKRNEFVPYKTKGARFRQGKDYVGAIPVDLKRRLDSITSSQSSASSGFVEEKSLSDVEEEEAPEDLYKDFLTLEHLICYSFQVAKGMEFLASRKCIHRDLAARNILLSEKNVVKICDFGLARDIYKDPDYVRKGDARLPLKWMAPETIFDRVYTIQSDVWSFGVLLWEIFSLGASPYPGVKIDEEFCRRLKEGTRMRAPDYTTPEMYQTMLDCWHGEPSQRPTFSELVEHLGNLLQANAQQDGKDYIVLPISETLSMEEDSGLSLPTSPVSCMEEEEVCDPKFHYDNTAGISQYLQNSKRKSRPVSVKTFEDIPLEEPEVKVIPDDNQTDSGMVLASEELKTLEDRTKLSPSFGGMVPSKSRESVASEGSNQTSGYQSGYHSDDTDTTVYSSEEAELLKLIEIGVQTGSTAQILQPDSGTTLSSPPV

NC[C@@H]1O[C@H](O[C@H]2[C@@H](O)[C@H](O[C@@H]3[C@@H](O)[C@H](N)C[C@H](N)[C@H]3O[C@H]3O[C@H](CN)[C@@H](O)[C@H](O)[C@H]3N)O[C@@H]2CO)[C@H](N)[C@@H](O)[C@@H]1O [KDR Kinase Inhibitor, 3]
IC50: 18 nM
